Data from patent publication US9744156B2, “Methods and compositions for enhanced transungual delivery of AR-12” (Arno Therapeutics, Inc., priority 2015, dated 2017).
Where two headings read alike, the source gives them in different places.

What was measured:
[1] = In vitro permeation across cadaver nail plate in modified Franz diffusion cell; format: in vitro ADME, human
Experimental: The permeation study was performed in Franz diffusion cells fitted with nail adapter. The finger nails (from all fingers except the little finger) of human cadavers obtained from ScienceCare were used for the transport studies. The nail plates were cleaned with water, and nail plates of 400-450 micron thickness were selected and visually inspected for presence of any cracks or pores. After mounting on the diffusion cell, the donor as well as the receiver compartments were filled with phosphate buffered saline […] and allowed to equilibrate for 3 hours for complete hydration of the nail plate. The electrical resistivity across the nail plate was measured prior to removal of the buffer to check the intactness of the nail plate after hydration.
The permeation testing was performed using modified Franz diffusion cell. The cell consisted of two compartments: a (1) a donor compartment for placing the drug solution/formulation and (2) a receiver compartment containing the buffer in which the drug diffuses. A nail holder is placed between the two compartments. The nail holder is curved to accommodate the contour of nail plate and secures the nail between the upper and lower part of the holder.
The donor compartment was filled with 500 microliters of drug solution (50 mg/ml) prepared in ethyl alcohol. For the control sample, no enhancer was incorporated. In the test cells, the enhancer was incorporated (5% PEG or 5% dexpanthenol or both). The donor compartment was covered with parafilm to minimize the loss of solvent. The drug solution was removed every 2 hours, the donor compartment was washed two times with 500 microliters of alcohol, and fresh drug solution (50 mg/ml) was placed in the donor compartment. […] The receiver compartment fluid was sampled at predetermined time points (e.g., 0, 12, 24, 36, 48, 60, 72, 84, 96, 108, 120, 132, 144, 156, 192, 204, […]) and the amount of drug permeated across the nail plate was quantitated by high pressure liquid chromatography.

[2] = 5% enhancer in 5% w/v AR-12 solution in ethanol, 24 h; FIG. 1

NCC(=O)Nc1ccc(-n2nc(C(F)(F)F)cc2-c2ccc3c(ccc4ccccc43)c2)cc1 [AR-12, 2-amino-N-(4-(5-(phenanthren-2-yl)-3-(trifluoromethyl)-1H-pyrazol-1-yl)phenyl)acetamide]
amount of drug permeated in a one week period across the nail plate ([1]; control, no enhancer, drug solution 50 mg/ml in ethyl alcohol, one week): 658 ± 306 ng

CC(C)(CO)[C@@H](O)C(=O)NCCCO [dexpanthenol]
suitability as enhancer for trans-ungual delivery of AR-12 (AR-12 accumulated in nail plate) [2]: preferred enhancers
enhancement of permeation flux of AR-12 across the nail plate ([1]; 5% enhancer in AR-12 solution (50 mg/ml in ethyl alcohol) versus control without enhancer, one week, FIG. 2): four fold

polyethylene glycol 400 [PEG-400]
enhancement of permeation flux of AR-12 across the nail plate [1]: about six fold
